Test results from patent publication US20250100995A1, “CEREBLON BINDING COMPOUNDS, COMPOSITIONS THEREOF, AND METHODS OF TREATMENT THEREWITH” (CELGENE CORPORATION, priority 2021, published 2025).
Counter-ions that a name gives are not always drawn.

Molecular target: T1, AR (Homo sapiens, UniProt P10275)
T1 construct: endogenous in cells; host or cells: VCaP cells
T1 sequence (P10275 1-920): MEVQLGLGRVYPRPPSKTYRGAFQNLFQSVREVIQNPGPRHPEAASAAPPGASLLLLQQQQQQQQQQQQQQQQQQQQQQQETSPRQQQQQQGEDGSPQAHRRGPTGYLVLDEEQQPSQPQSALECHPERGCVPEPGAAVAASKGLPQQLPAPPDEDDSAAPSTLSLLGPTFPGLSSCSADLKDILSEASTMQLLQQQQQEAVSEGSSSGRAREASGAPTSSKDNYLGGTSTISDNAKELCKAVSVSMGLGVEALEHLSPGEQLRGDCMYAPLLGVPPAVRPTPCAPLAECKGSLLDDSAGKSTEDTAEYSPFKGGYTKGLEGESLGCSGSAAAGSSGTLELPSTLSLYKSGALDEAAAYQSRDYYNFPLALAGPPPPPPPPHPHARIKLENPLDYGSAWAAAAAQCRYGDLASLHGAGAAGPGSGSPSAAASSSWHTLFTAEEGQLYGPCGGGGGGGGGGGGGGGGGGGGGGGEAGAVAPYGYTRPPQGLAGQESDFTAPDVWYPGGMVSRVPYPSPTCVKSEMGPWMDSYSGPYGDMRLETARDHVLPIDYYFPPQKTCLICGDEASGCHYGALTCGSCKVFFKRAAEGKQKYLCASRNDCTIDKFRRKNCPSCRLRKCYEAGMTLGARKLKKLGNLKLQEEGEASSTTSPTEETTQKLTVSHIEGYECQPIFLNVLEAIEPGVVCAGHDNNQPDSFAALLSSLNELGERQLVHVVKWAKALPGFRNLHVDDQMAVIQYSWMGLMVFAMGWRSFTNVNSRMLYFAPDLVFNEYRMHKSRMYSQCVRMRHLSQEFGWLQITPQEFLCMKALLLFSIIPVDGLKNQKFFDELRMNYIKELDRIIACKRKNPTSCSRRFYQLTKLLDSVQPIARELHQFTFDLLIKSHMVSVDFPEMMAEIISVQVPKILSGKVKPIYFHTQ
Test: VCAP AR Degradation Assay
Format: cell-based
Conditions: VCaP cells, 24 h, AR ELISA; for DC50: concentration of compound when AR level = 50% of DMSO control; for Y: lowest measured AR level normalized to DMSO control (AR degradation efficiency)
Protocol: VCAP AR Degradation Assay. Test compounds were pre-dispensed into a Corning CellBind 96-well clear bottom plate (Cat #3300) using an acoustic dispenser to make a 10-point concentration series at 1:3 dilution for each compound. The final top concentration of each compound was 5 μM. DMSO at a final concentration of 0.1% was used as a control. VCaP cells cultured in DMEM with 8% fetal bovine serum (FBS) were seeded at 50K cells per well in a 200 μL volume into the compound plate and incubated at 37° C. in a CO2 incubator for 24 h. The medium was carefully removed from the cells and the plate was placed on ice. One hundred μL of ice-cold 1× cell lysis buffer from Cell Signaling Technologies (Cat #9803) was added to each well of the cells and the plate was incubated at 4° C. on a shaker for 1 h. Fifteen μL of cell lysate was used for AR ELISA detection using a PathScan Total Sandwich AR ELISA kit (Cell Signaling Technology, Cat #12580). AR levels in compound-treated wells were normalized to that of DMSO control and expressed as percent of control (PoC) (y). A Four Parameter Logistic Model (Sigmoidal Dose-Response Model) was used to determine the compound's DC50, and EC50, using the following equation: […]
The lowest measured AR level normalized to DMSO control in response to compound treatment, termed Y value, was used to characterize the compound-mediated AR degradation efficiency.

Which DC50 does the source give for C[C@@H]1CN(CCO[C@H]2CC[C@H](N3C(=S)N(c4ccc(C#N)c(C(F)(F)F)c4)C(=O)C3(C)C)CC2)C[C@H](C)N1CCOc1cc(C2CCC(=O)NC2=O)ccn1 (stereo partly drawn) [Cmpd 15, 4-(3-(trans-4-(2-((3R,5S)-4-(2-((4-(2,6-Dioxopiperidin-3-yl)pyridin-2-yl)oxy)ethyl)-3,5-dimethylpiperazin-1-yl)ethoxy)cyclohexyl)-4,4-dimethyl-5-oxo-2-thioxoimidazolidin-1-yl)-2-(trifluoromethyl)benzonitrile hydrochloride] here?
The DC50 was 5 to 50 nM.

And the Y?
The Y was “*** (40%<Y<80%)”.

What does the source list for C[C@@H]1CN(CCO[C@H]2CC[C@H](N3C(=S)N(c4ccc(C#N)c(C(F)(F)F)c4)C(=O)C3(C)C)CC2)C[C@H](C)N1CCCOc1cc(C2CCC(=O)NC2=O)ccn1 (stereo partly drawn) [Cmpd 16, 4-(3-(trans-4-(2-((3R,5S)-4-(3-((4-(2,6-Dioxopiperidin-3-yl)pyridin-2-yl)oxy)propyl)-3,5-dimethylpiperazin-1-yl)ethoxy)cyclohexyl)-4,4-dimethyl-5-oxo-2-thioxoimidazolidin-1-yl)-2-(trifluoromethyl)benzonitrile hydrochloride]?
DC50: 50 to 200 nM; Y: *** (40%<Y<80%)

With C[C@@H]1CN(CCCC[C@H]2CC[C@H](N3C(=S)N(c4ccc(C#N)c(C(F)(F)F)c4)C(=O)C3(C)C)CC2)C[C@H](C)N1CC(=O)Nc1cc(N2CCC(=O)NC2=O)ccn1 [Cmpd 17, 2-((2R,6S)-4-(4-((trans)-4-(3-(4-Cyano-3-(trifluoromethyl)phenyl)-5,5-dimethyl-4-oxo-2-thioxoimidazolidin-1-yl)cyclohexyl)butyl)-2,6-dimethylpiperazin-1-yl)-N-(4-(2,4-dioxotetrahydropyrimidin-1(2H)-yl)pyridin-2-yl)acetamide] as the compound, how does the DC50 read?
The DC50 was 5 to 50 nM.

And the Y?
The Y was “** (20%<Y≤40%)”.

Which DC50 does the source give for C[C@@H]1CN(CCCC[C@H]2CC[C@H](N3C(=S)N(c4ccc(C#N)c(C(F)(F)F)c4)C(=O)C3(C)C)CC2)C[C@H](C)N1CC(=O)Nc1ccc(N2CCC(=O)NC2=O)cn1 [Cmpd 18, 2-((2R,6S)-4-(4-((trans)-4-(3-(4-Cyano-3-(trifluoromethyl)phenyl)-5,5-dimethyl-4-oxo-2-thioxoimidazolidin-1-yl)cyclohexyl)butyl)-2,6-dimethylpiperazin-1-yl)-N-(5-(2,4-dioxotetrahydropyrimidin-1(2H)-yl)pyridin-2-yl)acetamide] here?
Its DC50 is 5 to 50 nM.

And the Y?
Its Y is “** (20%<Y≤40%)”.

Which results are given for C[C@@H]1CN(CCCC[C@H]2CC[C@H](N3C(=S)N(c4ccc(C#N)c(C(F)(F)F)c4)C(=O)C3(C)C)CC2)C[C@H](C)N1CC(=O)Nc1ccc(C2CCC(=O)NC2=O)cn1 (stereo partly drawn) [Cmpd 19, 2-((2R,6S)-4-(4-((trans)-4-(3-(4-Cyano-3-(trifluoromethyl)phenyl)-5,5-dimethyl-4-oxo-2-thioxoimidazolidin-1-yl)cyclohexyl)butyl)-2,6-dimethylpiperazin-1-yl)-N-(5-(2,6-dioxopiperidin-3-yl)pyridin-2-yl)acetamide]?
DC50: ≤ 5 nM; Y: * (0<Y≤20%)

What does the source list for CC1(C)C(=O)N(c2ccc(C#N)c(C(F)(F)F)c2)C(=S)N1[C@H]1CC[C@H](CCCN2CCN(CC(=O)Nc3cc(C4CCC(=O)NC4=O)ccn3)[C@@H](C(F)(F)F)C2)CC1 (stereo partly drawn) [Cmpd 20, 2-((R)-4-(3-((trans)-4-(3-(4-Cyano-3-(trifluoromethyl)phenyl)-5,5-dimethyl-4-oxo-2-thioxoimidazolidin-1-yl)cyclohexyl)propyl)-2-(trifluoromethyl)piperazin-1-yl)-N-(4-(2,6-dioxopiperidin-3-yl)pyridin-2-yl)acetamide]?
DC50: 5 to 50 nM; Y: ** (20%<Y≤40%)

With CC1(C)C(=O)N(c2ccc(C#N)c(C(F)(F)F)c2)C(=S)N1[C@H]1CC[C@H](OCCN2CCN(CC(=O)Nc3cc(C4CCC(=O)NC4=O)ccn3)[C@@H](C(F)(F)F)C2)CC1 (stereo partly drawn) [Cmpd 21, 2-((R)-4-(2-(((trans)-4-(3-(4-Cyano-3-(trifluoromethyl)phenyl)-5,5-dimethyl-4-oxo-2-thioxoimidazolidin-1-yl)cyclohexyl)oxy)ethyl)-2-(trifluoromethyl)piperazin-1-yl)-N-(4-(2,6-dioxopiperidin-3-yl)pyridin-2-yl)acetamide] as the compound, how does the DC50 read?
Its DC50 is 5 to 50 nM.

And the Y?
The Y was “* (0<Y≤20%)”.

Which results are given for CC1(C)C(=O)N(c2cnc(C#N)c(C(F)(F)F)c2)C(=S)N1[C@H]1CC[C@H](OCCN2CCN(CC(=O)Nc3cc(C4CCC(=O)NC4=O)ccn3)[C@@H](C(F)(F)F)C2)CC1 (stereo partly drawn) [Cmpd 22, 2-((R)-4-(2-(((trans)-4-(3-(6-Cyano-5-(trifluoromethyl)pyridin-3-yl)-5,5-dimethyl-4-oxo-2-thioxoimidazolidin-1-yl)cyclohexyl)oxy)ethyl)-2-(trifluoromethyl)piperazin-1-yl)-N-(4-(2,6-dioxopiperidin-3-yl)pyridin-2-yl)acetamide]?
DC50: ≤ 5 nM; Y: * (0<Y≤20%)

Which DC50 does the source give for CC1(C)C(=O)N(c2cnc(C#N)c(C(F)(F)F)c2)C(=S)N1[C@H]1CC[C@H](CCCN2CCN(CC(=O)Nc3cc(C4CCC(=O)NC4=O)ccn3)[C@@H](C(F)(F)F)C2)CC1 (stereo partly drawn) [Cmpd 23, 2-((R)-4-(3-((trans)-4-(3-(6-Cyano-5-(trifluoromethyl)pyridin-3-yl)-5,5-dimethyl-4-oxo-2-thioxoimidazolidin-1-yl)cyclohexyl)propyl)-2-(trifluoromethyl)piperazin-1-yl)-N-(4-(2,6-dioxopiperidin-3-yl)pyridin-2-yl)acetamide] here?
Its DC50 is 5 to 50 nM.

And the Y?
Its Y is “* (0<Y≤20%)”.

What does the source list for CC1(C)C(=O)N(c2ccc(C#N)c(C(F)(F)F)c2)C(=S)N1[C@H]1CC[C@H](OCCCN2CCN(CC(=O)Nc3cc(C4CCC(=O)NC4=O)ccn3)[C@@H](C(F)(F)F)C2)CC1 (stereo partly drawn) [Cmpd 24, 2-((R)-4-(3-(((trans)-4-(3-(4-Cyano-3-(trifluoromethyl)phenyl)-5,5-dimethyl-4-oxo-2-thioxoimidazolidin-1-yl)cyclohexyl)oxy)propyl)-2-(trifluoromethyl)piperazin-1-yl)-N-(4-(2,6-dioxopiperidin-3-yl)pyridin-2-yl)acetamide]?
DC50: ≤ 5 nM; Y: * (0<Y≤20%)

Which results are given for CC1(C)C(=O)N(c2cnc(C#N)c(C(F)(F)F)c2)C(=S)N1[C@H]1CC[C@H](OCCCN2CCN(CC(=O)Nc3cc(C4CCC(=O)NC4=O)ccn3)[C@@H](C(F)(F)F)C2)CC1 (stereo partly drawn) [Cmpd 25, 2-((R)-4-(3-(((trans)-4-(3-(6-Cyano-5-(trifluoromethyl)pyridin-3-yl)-5,5-dimethyl-4-oxo-2-thioxoimidazolidin-1-yl)cyclohexyl)oxy)propyl)-2-(trifluoromethyl)piperazin-1-yl)-N-(4-(2,6-dioxopiperidin-3-yl)pyridin-2-yl)acetamide]?
DC50: ≤ 5 nM; Y: * (0<Y≤20%)

Which DC50 does the source give for C[C@@H]1C[C@H](OCCO[C@H]2CC[C@H](N3C(=S)N(c4cnc(C#N)c(C(F)(F)F)c4)C(=O)C3(C)C)CC2)C[C@H](C)N1CC(=O)Nc1cc(C2CCC(=O)NC2=O)ccn1 (stereo partly drawn) [Cmpd 26, 2-((2R,4r,6S)-4-(2-(((trans)-4-(3-(6-Cyano-5-(trifluoromethyl)pyridin-3-yl)-5,5-dimethyl-4-oxo-2-thioxoimidazolidin-1-yl)cyclohexyl)oxy)ethoxy)-2,6-dimethylpiperidin-1-yl)-N-(4-(2,6-dioxopiperidin-3-yl)pyridin-2-yl)acetamide] here?
The DC50 was at most 5 nM.

What about the Y of the same compound?
The Y was “** (20%<Y≤40%)”.
